Laboratory results published in article PMC9389804 (Journal of Hematology & Oncology, 2022).

Assay: safety assessments (adverse events, NCI CTCAE)
Settings: AE resulting in dose interruption
Description: Adverse events were assessed continuously and graded according to NCI CTCAE v5.0.18. Complete blood count with differential, serum chemistries, and physical examinations were performed before the study; weekly during Cycles 1 and 2; on alternate weeks in Cycles 3 and 4; and monthly thereafter.

Cc1ccc(C(=O)Nc2ccc(CN3CCN(C)CC3)c(C(F)(F)F)c2)cc1C#Cc1cnc2[nH]ncc2c1 [olverembatinib]
Acute myocardial infarction (Accelerated phase n=38): 0 n (%)
Anal abscess (Accelerated phase n=38): 1 (2.6) n (%)
Anemia (Accelerated phase n=38): 5 (13.2) n (%)
Atrial fibrillation (Accelerated phase n=38): 1 (2.6) n (%)
Atrial septal defect (Accelerated phase n=38): 0 n (%)
Chest pain (Accelerated phase n=38): 0 n (%)
Cholecystitis acute (Accelerated phase n=38): 0 n (%)
Cholelithiasis (Accelerated phase n=38): 0 n (%)
Febrile neutropenia (Accelerated phase n=38): 0 n (%)
Glaucoma (Accelerated phase n=38): 0 n (%)
Hematologic (Accelerated phase n=38): 22 (57.9) n (%)
Hemorrhoids (Accelerated phase n=38): 0 n (%)
Hepatocellular injury (Accelerated phase n=38): 1 (2.6) n (%)
Hyperbilirubinaemia (Accelerated phase n=38): 0 n (%)
Hyperglycaemia (Accelerated phase n=38): 0 n (%)
Hyperkalemia (Accelerated phase n=38): 1 (2.6) n (%)
Hypertriglyceridaemia (Accelerated phase n=38): 1 (2.6) n (%)
Hyperuricaemia (Accelerated phase n=38): 0 n (%)
Hypocalcemia (Accelerated phase n=38): 0 n (%)
Hypoesthesia (Accelerated phase n=38): 0 n (%)
Hypokalemia (Accelerated phase n=38): 2 (5.3) n (%)
Hyponatremia (Accelerated phase n=38): 0 n (%)
Increased alanine aminotransferase (Accelerated phase n=38): 1 (2.6) n (%)
Increased amylase (Accelerated phase n=38): 0 n (%)
Increased aspartate aminotransferase (Accelerated phase n=38): 1 (2.6) n (%)
Increased creatine phosphokinase (Accelerated phase n=38): 1 (2.6) n (%)
Increased pulmonary arterial pressure (Accelerated phase n=38): 0 n (%)
Increased γ-glutamyl transferase (Accelerated phase n=38): 0 n (%)
Influenza like illness (Accelerated phase n=38): 0 n (%)
Iridocyclitis (Accelerated phase n=38): 1 (2.6) n (%)
Lacunar infarction (Accelerated phase n=38): 0 n (%)
Leukopenia (Accelerated phase n=38): 5 (13.2) n (%)
Liver disorder (Accelerated phase n=38): 0 n (%)
Musculoskeletal pain (Accelerated phase n=38): 1 (2.6) n (%)
Myocardial strain (Accelerated phase n=38): 0 n (%)
Neutropenia (Accelerated phase n=38): 4 (10.5) n (%)
Nonhematologic (Accelerated phase n=38): 14 (36.8) n (%)
Pain (Accelerated phase n=38): 0 n (%)
Pain in extremity (Accelerated phase n=38): 0 n (%)
Peripheral swelling (Accelerated phase n=38): 0 n (%)
Pneumonia (Accelerated phase n=38): 0 n (%)
Proteinuria (Accelerated phase n=38): 0 n (%)
Pulmonary arterial hypertension (Accelerated phase n=38): 0 n (%)
Pulmonary tuberculosis (Accelerated phase n=38): 1 (2.6) n (%)
Pyrexia (Accelerated phase n=38): 2 (5.3) n (%)
Rash (Accelerated phase n=38): 1 (2.6) n (%)
Refraction disorder (Accelerated phase n=38): 0 n (%)
Sinus bradycardia (Accelerated phase n=38): 0 n (%)
Sinus tachycardia (Accelerated phase n=38): 1 (2.6) n (%)
Skin mass (Accelerated phase n=38): 0 n (%)
Superior mesenteric artery syndrome (Accelerated phase n=38): 0 n (%)
Supraventricular extrasystoles (Accelerated phase n=38): 1 (2.6) n (%)
Swelling (Accelerated phase n=38): 0 n (%)
Thrombocytopenia (Accelerated phase n=38): 17 (44.7) n (%)
Upper-respiratory-tract infection (Accelerated phase n=38): 1 (2.6) n (%)
Urinary sediment present (Accelerated phase n=38): 0 n (%)
Acute myocardial infarction (Chronic phase n=127): 1 (0.8) n (%)
Anal abscess (Chronic phase n=127): 0 n (%)
Anemia (Chronic phase n=127): 3 (2.4) n (%)
Atrial fibrillation (Chronic phase n=127): 1 (0.8) n (%)
Atrial septal defect (Chronic phase n=127): 1 (0.8) n (%)
Chest pain (Chronic phase n=127): 1 (0.8) n (%)
Cholecystitis acute (Chronic phase n=127): 1 (0.8) n (%)
Cholelithiasis (Chronic phase n=127): 1 (0.8) n (%)
Febrile neutropenia (Chronic phase n=127): 1 (0.8) n (%)
Glaucoma (Chronic phase n=127): 1 (0.8) n (%)
Hematologic (Chronic phase n=127): 44 (34.6) n (%)
Hemorrhoids (Chronic phase n=127): 1 (0.8) n (%)
Hepatocellular injury (Chronic phase n=127): 0 n (%)
Hyperbilirubinaemia (Chronic phase n=127): 2 (1.6) n (%)
Hyperglycaemia (Chronic phase n=127): 1 (0.8) n (%)
Hyperkalemia (Chronic phase n=127): 0 n (%)
Hypertriglyceridaemia (Chronic phase n=127): 3 (2.4) n (%)
Hyperuricaemia (Chronic phase n=127): 1 (0.8) n (%)
Hypocalcemia (Chronic phase n=127): 3 (2.4) n (%)
Hypoesthesia (Chronic phase n=127): 1 (0.8) n (%)
Hypokalemia (Chronic phase n=127): 0 n (%)
Hyponatremia (Chronic phase n=127): 1 (0.8) n (%)
Increased alanine aminotransferase (Chronic phase n=127): 3 (2.4) n (%)
Increased amylase (Chronic phase n=127): 1 (0.8) n (%)
Increased aspartate aminotransferase (Chronic phase n=127): 2 (1.6) n (%)
Increased creatine phosphokinase (Chronic phase n=127): 3 (2.4) n (%)
Increased pulmonary arterial pressure (Chronic phase n=127): 1 (0.8) n (%)
Increased γ-glutamyl transferase (Chronic phase n=127): 1 (0.8) n (%)
Influenza like illness (Chronic phase n=127): 1 (0.8) n (%)
Iridocyclitis (Chronic phase n=127): 0 n (%)
Lacunar infarction (Chronic phase n=127): 1 (0.8) n (%)
Leukopenia (Chronic phase n=127): 4 (3.1) n (%)
Liver disorder (Chronic phase n=127): 1 (0.8) n (%)
Musculoskeletal pain (Chronic phase n=127): 0 n (%)
Myocardial strain (Chronic phase n=127): 1 (0.8) n (%)
Neutropenia (Chronic phase n=127): 1 (0.8) n (%)
Nonhematologic (Chronic phase n=127): 34 (26.8) n (%)
Pain (Chronic phase n=127): 1 (0.8) n (%)
Pain in extremity (Chronic phase n=127): 1 (0.8) n (%)
Pericardial effusion (Chronic phase n=127): 0 n (%)
Peripheral swelling (Chronic phase n=127): 1 (0.8) n (%)
Pneumonia (Chronic phase n=127): 2 (1.6) n (%)
Proteinuria (Chronic phase n=127): 1 (0.8) n (%)
Pulmonary arterial hypertension (Chronic phase n=127): 1 (0.8) n (%)
Pulmonary tuberculosis (Chronic phase n=127): 0 n (%)
Pyrexia (Chronic phase n=127): 1 (0.8) n (%)
Rash (Chronic phase n=127): 0 n (%)
Refraction disorder (Chronic phase n=127): 1 (0.8) n (%)
Sinus bradycardia (Chronic phase n=127): 1 (0.8) n (%)
Sinus tachycardia (Chronic phase n=127): 1 (0.8) n (%)
Skin mass (Chronic phase n=127): 1 (0.8) n (%)
Superior mesenteric artery syndrome (Chronic phase n=127): 1 (0.8) n (%)
Supraventricular extrasystoles (Chronic phase n=127): 0 n (%)
Swelling (Chronic phase n=127): 1 (0.8) n (%)
Thrombocytopenia (Chronic phase n=127): 42 (33.1) n (%)
Upper-respiratory-tract infection (Chronic phase n=127): 1 (0.8) n (%)
Urinary sediment present (Chronic phase n=127): 1 (0.8) n (%)
Acute myocardial infarction (Total n=165): 1 (0.6) n (%)
Anal abscess (Total n=165): 1 (0.6) n (%)
Anemia (Total n=165): 8 (4.8) n (%)
Atrial fibrillation (Total n=165): 2 (1.2) n (%)
Atrial septal defect (Total n=165): 1 (0.6) n (%)
Chest pain (Total n=165): 1 (0.6) n (%)
Cholecystitis acute (Total n=165): 1 (0.6) n (%)
Cholelithiasis (Total n=165): 1 (0.6) n (%)
Febrile neutropenia (Total n=165): 1 (0.6) n (%)
Glaucoma (Total n=165): 1 (0.6) n (%)
Hematologic (Total n=165): 66 (40.0) n (%)
Hemorrhoids (Total n=165): 1 (0.6) n (%)
Hepatocellular injury (Total n=165): 1 (0.6) n (%)
Hyperbilirubinaemia (Total n=165): 2 (1.2) n (%)
Hyperglycaemia (Total n=165): 1 (0.6) n (%)
Hyperkalemia (Total n=165): 1 (0.6) n (%)
Hypertriglyceridaemia (Total n=165): 4 (2.4) n (%)
Hyperuricaemia (Total n=165): 1 (0.6) n (%)
Hypocalcemia (Total n=165): 3 (1.8) n (%)
Hypoesthesia (Total n=165): 1 (0.6) n (%)
Hypokalemia (Total n=165): 2 (1.2) n (%)
Hyponatremia (Total n=165): 1 (0.6) n (%)
Increased alanine aminotransferase (Total n=165): 4 (2.4) n (%)
Increased amylase (Total n=165): 1 (0.6) n (%)
Increased aspartate aminotransferase (Total n=165): 3 (1.8) n (%)
Increased creatine phosphokinase (Total n=165): 4 (2.4) n (%)
Increased pulmonary arterial pressure (Total n=165): 1 (0.6) n (%)
Increased γ-glutamyl transferase (Total n=165): 1 (0.6) n (%)
Influenza like illness (Total n=165): 1 (0.6) n (%)
Iridocyclitis (Total n=165): 1 (0.6) n (%)
Lacunar infarction (Total n=165): 1 (0.6) n (%)
Leukopenia (Total n=165): 9 (5.5) n (%)
Liver disorder (Total n=165): 1 (0.6) n (%)
